Experimental data reported in ChEMBL document CHEMBL5647694, “Novel orally bioavailable EZH1/2 dual inhibitors with greater antitumor efficacy than an EZH2 selective inhibitor” (Cancer Sci, 2017).
Active and inactive are the calls of the source. No cut-off for these calls is given here.

What was measured:
[1] = molecular target: Histone-lysine N-methyltransferase, H3 lysine-36 specific (Homo sapiens, UniProt Q96L73); assay: Inhibition of human NSD1 using Nucleosomes and [3H]SAM as substrate incubated for 30 mins to 1 hr by HotSpot kinase assay
[2] = test system: SR; assay: Antitumor activity against human SR cells assessed as cell growth inhibition treated for 10 to 15 days; type: functional; settings: time 10-15 day
[3] = molecular target: Histone-lysine N-methyltransferase NSD2 (Homo sapiens, UniProt O96028, E1099K); assay: Inhibition of human NSD2 E1099K mutant using Nucleosomes and [3H]SAM as substrate incubated for 30 mins to 1 hr by HotSpot kinase assay
Sequence of Histone-lysine N-methyltransferase NSD2 (Homo sapiens, UniProt O96028, E1099K) (O96028 whole entry E1099K): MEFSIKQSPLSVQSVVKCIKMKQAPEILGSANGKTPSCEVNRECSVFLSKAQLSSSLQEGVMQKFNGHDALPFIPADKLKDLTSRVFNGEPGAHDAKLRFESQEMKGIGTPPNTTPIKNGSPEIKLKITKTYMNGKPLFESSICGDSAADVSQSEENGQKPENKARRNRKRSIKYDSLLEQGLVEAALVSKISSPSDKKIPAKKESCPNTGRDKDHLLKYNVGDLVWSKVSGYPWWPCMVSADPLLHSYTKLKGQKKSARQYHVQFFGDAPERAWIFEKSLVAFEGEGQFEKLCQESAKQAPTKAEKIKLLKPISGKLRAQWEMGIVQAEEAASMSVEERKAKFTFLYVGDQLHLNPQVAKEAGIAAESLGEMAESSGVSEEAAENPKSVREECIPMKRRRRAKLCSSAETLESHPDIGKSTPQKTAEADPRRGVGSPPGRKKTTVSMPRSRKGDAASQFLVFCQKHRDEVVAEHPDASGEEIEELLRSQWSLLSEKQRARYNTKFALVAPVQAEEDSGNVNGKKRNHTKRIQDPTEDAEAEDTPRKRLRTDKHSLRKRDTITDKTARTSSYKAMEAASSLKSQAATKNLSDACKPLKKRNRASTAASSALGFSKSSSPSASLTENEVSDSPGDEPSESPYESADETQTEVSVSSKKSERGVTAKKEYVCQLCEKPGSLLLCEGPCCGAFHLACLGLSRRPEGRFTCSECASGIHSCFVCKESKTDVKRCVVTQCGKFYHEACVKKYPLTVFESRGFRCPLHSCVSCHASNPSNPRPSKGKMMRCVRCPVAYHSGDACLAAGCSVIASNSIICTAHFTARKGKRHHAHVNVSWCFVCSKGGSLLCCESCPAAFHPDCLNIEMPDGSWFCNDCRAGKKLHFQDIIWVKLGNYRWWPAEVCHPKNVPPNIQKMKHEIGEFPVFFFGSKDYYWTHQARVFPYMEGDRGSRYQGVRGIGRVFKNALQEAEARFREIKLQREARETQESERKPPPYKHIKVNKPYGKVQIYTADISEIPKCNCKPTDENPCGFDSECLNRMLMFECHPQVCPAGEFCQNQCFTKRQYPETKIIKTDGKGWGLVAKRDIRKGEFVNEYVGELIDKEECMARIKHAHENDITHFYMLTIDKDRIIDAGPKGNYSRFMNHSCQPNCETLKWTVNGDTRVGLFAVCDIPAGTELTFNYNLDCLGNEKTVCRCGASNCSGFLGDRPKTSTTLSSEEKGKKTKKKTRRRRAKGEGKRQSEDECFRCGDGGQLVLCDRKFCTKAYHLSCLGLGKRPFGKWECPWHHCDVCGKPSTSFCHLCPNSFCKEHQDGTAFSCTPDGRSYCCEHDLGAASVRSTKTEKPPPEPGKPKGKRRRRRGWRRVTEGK

[4] = test system: REH; assay: Antitumor activity against human REH cells assessed as cell growth inhibition treated for 10 to 15 days; type: functional; settings: time 10-15 day
[5] = test system: NCI-H1436; assay: Antitumor activity against human NCI-H1436 cells assessed as cell growth inhibition treated for 10 to 15 days; type: functional; settings: time 10-15 day
[6] = test system: LS-513; assay: Antitumor activity against human LS-513 cells assessed as cell growth inhibition treated for 10 to 15 days; type: functional; settings: time 10-15 day
[7] = test system: K562; assay: Antitumor activity against human K562 cells assessed as cell growth inhibition treated for 10 to 15 days; type: functional; settings: time 10-15 day
[8] = molecular target: MAP kinase-activated protein kinase 2 (Homo sapiens) (UniProt P49137); assay: Inhibition of N-terminal GST-fused full length human MAPKAPK2 (1 to 400 residues) expressed in baculovirus expression system using GS peptide as substrate at 1 uM in presence of ATP by Mobility shift assay
Sequence of MAP kinase-activated protein kinase 2 (Homo sapiens) (P49137 whole entry, looked up, the tested form may be a part): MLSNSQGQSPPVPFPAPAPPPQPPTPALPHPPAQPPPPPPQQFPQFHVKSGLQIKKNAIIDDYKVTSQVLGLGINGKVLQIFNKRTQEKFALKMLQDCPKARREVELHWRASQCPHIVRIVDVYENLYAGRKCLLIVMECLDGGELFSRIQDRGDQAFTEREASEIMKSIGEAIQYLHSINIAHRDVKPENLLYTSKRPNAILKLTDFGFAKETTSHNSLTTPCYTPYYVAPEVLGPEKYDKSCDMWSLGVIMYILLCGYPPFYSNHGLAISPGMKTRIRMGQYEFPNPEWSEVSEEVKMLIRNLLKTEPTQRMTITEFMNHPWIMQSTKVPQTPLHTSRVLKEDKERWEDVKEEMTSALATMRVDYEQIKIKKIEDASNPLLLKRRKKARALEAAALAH

[9] = molecular target: DNA (cytosine-5)-methyltransferase 3A (Homo sapiens, UniProt Q9Y6K1); assay: Inhibition of human DNMT3a using lambda DNA and [3H]SAM as substrate incubated for 30 mins to 1 hr by HotSpot kinase assay
Sequence of DNA (cytosine-5)-methyltransferase 3A (Q9Y6K1 whole entry, looked up): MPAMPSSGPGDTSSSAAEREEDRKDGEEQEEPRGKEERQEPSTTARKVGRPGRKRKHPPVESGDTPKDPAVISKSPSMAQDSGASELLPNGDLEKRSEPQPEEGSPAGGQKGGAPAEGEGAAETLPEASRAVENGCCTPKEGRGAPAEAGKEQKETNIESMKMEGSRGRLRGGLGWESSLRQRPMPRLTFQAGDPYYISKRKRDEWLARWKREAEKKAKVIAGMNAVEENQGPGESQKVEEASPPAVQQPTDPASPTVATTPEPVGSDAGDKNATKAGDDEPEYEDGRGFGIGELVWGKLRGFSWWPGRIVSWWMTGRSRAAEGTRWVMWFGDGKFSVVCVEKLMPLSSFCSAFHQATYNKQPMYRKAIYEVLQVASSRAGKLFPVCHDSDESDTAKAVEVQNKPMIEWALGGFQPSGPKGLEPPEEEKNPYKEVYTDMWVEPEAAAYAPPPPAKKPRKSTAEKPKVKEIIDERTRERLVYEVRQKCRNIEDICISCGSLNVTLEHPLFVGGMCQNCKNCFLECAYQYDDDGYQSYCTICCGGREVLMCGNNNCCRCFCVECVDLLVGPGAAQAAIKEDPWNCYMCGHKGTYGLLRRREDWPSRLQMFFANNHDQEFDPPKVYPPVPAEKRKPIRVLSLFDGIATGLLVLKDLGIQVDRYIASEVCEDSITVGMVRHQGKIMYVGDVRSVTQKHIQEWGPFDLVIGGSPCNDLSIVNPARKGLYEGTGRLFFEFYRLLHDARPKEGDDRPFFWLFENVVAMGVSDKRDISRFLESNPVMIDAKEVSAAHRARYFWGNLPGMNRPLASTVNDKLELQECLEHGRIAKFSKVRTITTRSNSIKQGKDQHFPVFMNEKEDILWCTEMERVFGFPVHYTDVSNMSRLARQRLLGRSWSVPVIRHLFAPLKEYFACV

[10] = test system: NCI-H520; assay: Antitumor activity against human NCI-H520 cells assessed as cell growth inhibition treated for 10 to 15 days; type: functional; settings: time 10-15 day
[11] = test system: KMS-11; assay: Antitumor activity against human KMS-11 cells assessed as cell growth inhibition treated for 10 to 15 days; type: functional; settings: time 10-15 day
[12] = test system: Hs-578T; assay: Antitumor activity against human Hs-578T cells assessed as cell growth inhibition treated for 10 to 15 days; type: functional; settings: time 10-15 day
[13] = test system: GA-10; assay: Antitumor activity against human GA-10 cells assessed as cell growth inhibition treated for 10 to 15 days; type: functional; settings: time 10-15 day
[14] = test system: THP-1; assay: Antitumor activity against human THP-1 cells assessed as cell growth inhibition treated for 10 to 15 days; type: functional; settings: time 10-15 day
[15] = test system: RPMI-6666; assay: Antitumor activity against human RPMI-6666 cells assessed as cell growth inhibition treated for 10 to 15 days; type: functional; settings: time 10-15 day
[16] = test system: CEM/C2; assay: Antitumor activity against human CEM/C2 cells assessed as cell growth inhibition treated for 10 to 15 days; type: functional; settings: time 10-15 day
[17] = Antitumor activity against human PCM6 cells assessed as cell growth inhibition treated for 10 to 15 days; type: functional; settings: time 10-15 day
[18] = Antitumor activity against human MDA-PCa-2b cells assessed as cell growth inhibition treated for 10 to 15 days; type: functional; settings: time 10-15 day
[19] = test system: Z-138; assay: Antitumor activity against human Z138 cells assessed as cell growth inhibition treated for 10 to 15 days; type: functional; settings: time 10-15 day
[20] = molecular target: Protein arginine N-methyltransferase 8 (Homo sapiens, UniProt Q9NR22); assay: Inhibition of human PRMT8 using Histone H4 and [3H]SAM as substrate incubated for 30 mins to 1 hr by HotSpot kinase assay
Sequence of Protein arginine N-methyltransferase 8 (Q9NR22 whole entry): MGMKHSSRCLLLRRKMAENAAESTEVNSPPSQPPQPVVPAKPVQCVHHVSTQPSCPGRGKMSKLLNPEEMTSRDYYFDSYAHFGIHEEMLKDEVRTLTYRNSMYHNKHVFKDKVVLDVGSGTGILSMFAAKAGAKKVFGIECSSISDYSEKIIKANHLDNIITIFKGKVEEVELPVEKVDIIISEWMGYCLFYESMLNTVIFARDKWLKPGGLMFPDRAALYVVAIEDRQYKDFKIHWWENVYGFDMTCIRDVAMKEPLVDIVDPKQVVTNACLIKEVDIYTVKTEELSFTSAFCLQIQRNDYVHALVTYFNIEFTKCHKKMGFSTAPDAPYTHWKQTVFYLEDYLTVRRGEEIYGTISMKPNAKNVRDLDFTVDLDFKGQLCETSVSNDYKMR

[21] = test system: DB; assay: Antitumor activity against human DB cells assessed as cell growth inhibition treated for 10 to 15 days; type: functional; settings: time 10-15 day
[22] = test system: MX1; assay: Antitumor activity against human MX1 cells assessed as cell growth inhibition treated for 10 to 15 days; type: functional; settings: time 10-15 day
[23] = test system: HCC1937; assay: Antitumor activity against human HCC1937 cells assessed as cell growth inhibition treated for 10 to 15 days; type: functional; settings: time 10-15 day
[24] = test system: HGC-27; assay: Antitumor activity against human HGC-27 cells assessed as cell growth inhibition treated for 10 to 15 days; type: functional; settings: time 10-15 day
[25] = test system: NB-4; assay: Antitumor activity against human NB-4 cells assessed as cell growth inhibition treated for 10 to 15 days; type: functional; settings: time 10-15 day
[26] = test system: RKO; assay: Antitumor activity against human RKO cells assessed as cell growth inhibition treated for 10 to 15 days; type: functional; settings: time 10-15 day
[27] = test system: Granta-519; assay: Antitumor activity against human Granta-519 cells assessed as cell growth inhibition treated for 10 to 15 days; type: functional; settings: time 10-15 day
[28] = test system: ZR-75-1; assay: Antitumor activity against human ZR-75-1 cells assessed as cell growth inhibition treated for 10 to 15 days; type: functional; settings: time 10-15 day
[29] = test system: Jurkat; assay: Antitumor activity against human Jurkat cells clone E6-1 assessed as cell growth inhibition treated for 10 to 15 days; type: functional; settings: time 10-15 day
[30] = molecular target: Histone-lysine N-methyltransferase NSD2 (Homo sapiens, UniProt O96028); assay: Inhibition of human NSD2 using Nucleosomes and [3H]SAM as substrate incubated for 30 mins to 1 hr by HotSpot kinase assay
Sequence of Histone-lysine N-methyltransferase NSD2 (Homo sapiens, UniProt O96028) (O96028 whole entry): as the sequence (O96028 whole entry E1099K) above, with K1099E counted along it

[31] = test system: HCC2935; assay: Antitumor activity against human HCC2935 cells assessed as cell growth inhibition treated for 10 to 15 days; type: functional; settings: time 10-15 day
[32] = test system: SK-ES1; assay: Antitumor activity against human SK-ES1 cells assessed as cell growth inhibition treated for 10 to 15 days; type: functional; settings: time 10-15 day
[33] = test system: ZR-75-30; assay: Antitumor activity against human ZR-75-30 cells assessed as cell growth inhibition treated for 10 to 15 days; type: functional; settings: time 10-15 day
[34] = test system: MDA-MB-453; assay: Antitumor activity against human MDA-MB-453 cells assessed as cell growth inhibition treated for 10 to 15 days; type: functional; settings: time 10-15 day
[35] = Toxicity in Crl:CD Sprague-Dawley rat assessed as alanine aminotransferase level in blood at 100 mg/kg, po administered daily for 14 days (reference value: 35.5+/-1.91 U/L); type: organism-based; settings: in vivo, 336 h, time 14 day
[36] = Toxicity in Crl:CD Sprague-Dawley rat assessed as hematocrit level in blood at 100 mg/kg, po administered daily for 14 days (reference value: 41.2 +/-[…]); type: organism-based; settings: in vivo, 336 h, time 14 day
[37] = Toxicity in Crl:CD Sprague-Dawley rat assessed as albumin level in blood at 100 mg/kg, po administered daily for 14 days (reference value: 3.85+/-0.129 g/dL); type: organism-based; settings: in vivo, 336 h, time 14 day
[38] = test system: Mus musculus; assay: In vivo inhibition of EZH1/2 in CB17/Icr-Prkdcscid/CrlCrlj mouse xenografted with human KARPAS-422 cells assessed as decrease in H3K27me3 level in tumor at 3.1 to 50 mg/kg, po BID for 14 days and measured 1 day after cessation of drug dosing; type: functional, organism-based; settings: dose 3.1-50 mg/kg, time 14.0 day
[39] = Toxicity in Crl:CD Sprague-Dawley rat assessed as abnormal clinical signs at 100 mg/kg, po administered daily for 14 days; type: organism-based; settings: in vivo, 336 h, time 14 day
[40] = test system: KARPAS-422; assay: Antitumor activity against human KARPAS-422 cells xenografted in CB17/Icr-Prkdcscid/CrlCrlj mouse assessed as inhibition of tumor growth at 50 mg/kg, po BID for 14 days and measured after cessation of drug treatment; type: functional, organism-based; settings: time 14.0 day
[41] = Toxicity in Crl:CD Sprague-Dawley rat assessed as triglyceride level in blood at 100 mg/kg, po administered daily for 14 days (reference value: 132 +/-30 mg/dL); type: organism-based; settings: in vivo, 336 h, time 14 day

Question: For `Cc1cc(C)c(CNC(=O)c2cc(Cl)c3c(c2C)O[C@@](C)([C@H]2CC[C@H](N(C)C)CC2)O3)c(=O)[nH]1` [VALEMETOSTAT], which IC50 [1] is on record?
Answer: 100000 nM

Question: What about the GI50 [2] of the same compound?
Answer: 388 nM

Question: And the IC50 [3]?
Answer: 100000 nM

Question: And the GI50 [4]?
Answer: > 1000 nM

Question: What about the GI50 [5] of the same compound?
Answer: 216 nM

Question: And the GI50 [6]?
Answer: > 1000 nM

Question: What about the GI50 [7] of the same compound?
Answer: 788 nM

Question: And the inhibition [8]?
Answer: 6.7%

Question: What about the IC50 [9] of the same compound?
Answer: 100000 nM

Question: What about the GI50 [10] of the same compound?
Answer: > 1000 nM

Question: And the GI50 [11]?
Answer: 10.3 nM

Question: And the GI50 [12]?
Answer: > 1000 nM

Question: And the GI50 [13]?
Answer: 14.9 nM

Question: And the GI50 [14]?
Answer: 68.1 nM

Question: And the GI50 [15]?
Answer: 68.4 nM

Question: What about the GI50 [16] of the same compound?
Answer: > 1000 nM

Question: What about the GI50 [17] of the same compound?
Answer: 32.5 nM

Question: And the GI50 [18]?
Answer: 12.5 nM

Question: What about the GI50 [19] of the same compound?
Answer: 19.1 nM

Question: And the IC50 [20]?
Answer: 100000 nM

Question: And the GI50 [21]?
Answer: 4.11 nM

Question: And the GI50 [22]?
Answer: > 1000 nM

Question: And the GI50 [23]?
Answer: > 1000 nM

Question: And the GI50 [24]?
Answer: > 1000 nM

Question: What about the GI50 [25] of the same compound?
Answer: > 1000 nM

Question: And the GI50 [26]?
Answer: > 1000 nM

Question: What about the GI50 [27] of the same compound?
Answer: > 1000 nM

Question: And the GI50 [28]?
Answer: 138 nM

Question: And the GI50 [29]?
Answer: > 1000 nM

Question: And the IC50 [30]?
Answer: 100000 nM

Question: What about the GI50 [31] of the same compound?
Answer: > 1000 nM

Question: What about the GI50 [32] of the same compound?
Answer: > 1000 nM

Question: What about the GI50 [33] of the same compound?
Answer: > 1000 nM

Question: What about the GI50 [34] of the same compound?
Answer: 124 nM

Question: Which Activity [35] does the source give for `Cc1cc(C)c(CNC(=O)c2cc(Br)c3c(c2C)O[C@@](C)([C@H]2CC[C@H](N(C)C)CC2)O3)c(=O)[nH]1` here?
Answer: 27.5 U/L

Question: And the Activity [36]?
Answer: 40.1%

Question: What about the Activity [37] of the same compound?
Answer: 3.75 g/dL

Question: And the inhibition [38]?
Answer: Active

Question: What about the Activity [39] of the same compound?
Answer: Non-Toxic

Question: What about the Activity [40] of the same compound?
Answer: Active

Question: What about the Activity [41] of the same compound?
Answer: 90 mg/dL
